How the values were obtained:
[1] = tested on: HDACs (HeLa cell nuclear extracts); assay: HDAC enzymatic activity, Biomol Color de Lys system; assay type: biochemical; settings: 1 hour, 25° C.
How it was run: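 HeLa nuclear extract incubated with serially diluted compound and […] artificial substrate in 50 mM Tris/Cl pH 8.0, 137 mM NaCl, 2.7 mM KCl, 1 mM MgCl2. Run 1 h at 25 °C, stopped with developer. Fluorescence read (ex 350-380, em 440-460 nm); IC50 from sigmoidal dose-response fit.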

PI3Kα (p110α/p85α) = target: T1, PI3Kα (p110α/p85α) (Homo sapiens, UniProt P42336); assay: PI3Kα ADP-Glo assay; assay type: biochemical; settings: 20 μM PIP2, 10 μM ATP, 30 minutes
T1 construct: GST (N); made in house; host or cells: Baculovirus-infected Sf9 cells
T1 sequence (P42336 whole entry): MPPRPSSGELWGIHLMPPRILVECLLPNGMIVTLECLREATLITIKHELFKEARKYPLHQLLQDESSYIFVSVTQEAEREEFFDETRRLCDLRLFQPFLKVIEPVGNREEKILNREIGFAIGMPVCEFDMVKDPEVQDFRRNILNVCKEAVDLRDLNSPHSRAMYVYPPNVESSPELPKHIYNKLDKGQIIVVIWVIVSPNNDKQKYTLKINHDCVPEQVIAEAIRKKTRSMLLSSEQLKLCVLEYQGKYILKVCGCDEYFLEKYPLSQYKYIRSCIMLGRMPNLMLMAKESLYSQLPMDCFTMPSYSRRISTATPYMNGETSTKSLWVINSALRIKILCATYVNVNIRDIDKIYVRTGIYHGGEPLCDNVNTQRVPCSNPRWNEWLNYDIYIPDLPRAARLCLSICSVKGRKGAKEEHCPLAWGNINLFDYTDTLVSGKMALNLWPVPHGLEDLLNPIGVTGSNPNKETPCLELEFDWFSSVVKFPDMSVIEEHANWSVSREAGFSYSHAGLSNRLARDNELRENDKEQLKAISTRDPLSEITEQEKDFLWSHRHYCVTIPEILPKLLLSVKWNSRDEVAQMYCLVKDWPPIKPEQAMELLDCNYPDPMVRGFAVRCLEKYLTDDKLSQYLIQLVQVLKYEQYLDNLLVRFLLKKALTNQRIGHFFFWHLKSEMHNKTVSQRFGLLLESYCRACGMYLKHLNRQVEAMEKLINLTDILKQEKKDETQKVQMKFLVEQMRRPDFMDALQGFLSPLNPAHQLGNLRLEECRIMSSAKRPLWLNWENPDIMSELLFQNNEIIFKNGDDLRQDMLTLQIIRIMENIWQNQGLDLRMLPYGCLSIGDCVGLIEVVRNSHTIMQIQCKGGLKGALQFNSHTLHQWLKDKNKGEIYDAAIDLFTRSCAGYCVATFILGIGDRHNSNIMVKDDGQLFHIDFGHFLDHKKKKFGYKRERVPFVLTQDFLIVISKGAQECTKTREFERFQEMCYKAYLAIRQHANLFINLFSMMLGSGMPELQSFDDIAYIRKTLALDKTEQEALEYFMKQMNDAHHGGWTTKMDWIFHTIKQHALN
T1 sequence (P27986 whole entry partner): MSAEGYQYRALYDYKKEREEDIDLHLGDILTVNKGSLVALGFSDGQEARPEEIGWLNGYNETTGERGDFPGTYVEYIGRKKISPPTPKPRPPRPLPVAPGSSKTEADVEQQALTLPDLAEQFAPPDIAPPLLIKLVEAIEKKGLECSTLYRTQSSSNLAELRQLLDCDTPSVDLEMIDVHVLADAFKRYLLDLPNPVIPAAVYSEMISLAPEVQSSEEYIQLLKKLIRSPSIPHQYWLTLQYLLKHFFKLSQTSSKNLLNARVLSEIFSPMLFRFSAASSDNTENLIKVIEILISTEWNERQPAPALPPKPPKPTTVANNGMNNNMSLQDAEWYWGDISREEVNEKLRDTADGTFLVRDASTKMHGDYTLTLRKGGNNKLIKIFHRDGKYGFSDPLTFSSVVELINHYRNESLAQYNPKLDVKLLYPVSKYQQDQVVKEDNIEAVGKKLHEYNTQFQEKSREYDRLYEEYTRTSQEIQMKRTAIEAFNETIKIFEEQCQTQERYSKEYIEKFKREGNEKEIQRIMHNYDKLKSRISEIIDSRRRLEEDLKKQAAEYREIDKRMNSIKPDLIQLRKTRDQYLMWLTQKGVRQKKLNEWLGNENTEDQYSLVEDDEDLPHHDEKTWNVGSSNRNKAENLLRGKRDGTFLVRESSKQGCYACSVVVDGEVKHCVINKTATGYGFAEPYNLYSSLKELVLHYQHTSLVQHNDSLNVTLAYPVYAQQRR
How it was run: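 Recombinant full-length human GST-p110α/His-p85α, co-expressed in Sf9 cells, was incubated 30 min at room temperature with 20 μM PIP2 and 10 μM ATP. The buffer was 50 mM HEPES pH 7.4, 150 mM NaCl, 5 mM MgCl2, 1 mM DTT, 3 µM orthovanadate and 0.5% DMSO. ADP formed was detected by ADP-Glo luminescence.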

PI3Kβ (p110β/p85α) = target: T2, PI3Kβ (p110β/p85α) (Homo sapiens, UniProt P42338); assay: PI3Kβ ADP-Glo assay; assay type: biochemical; settings: 20 μM PIP2, 10 μM ATP, 90 minutes
T2 construct: His (N); made in house; host or cells: Baculovirus-infected Sf9 cells
T2 sequence (P42338 whole entry): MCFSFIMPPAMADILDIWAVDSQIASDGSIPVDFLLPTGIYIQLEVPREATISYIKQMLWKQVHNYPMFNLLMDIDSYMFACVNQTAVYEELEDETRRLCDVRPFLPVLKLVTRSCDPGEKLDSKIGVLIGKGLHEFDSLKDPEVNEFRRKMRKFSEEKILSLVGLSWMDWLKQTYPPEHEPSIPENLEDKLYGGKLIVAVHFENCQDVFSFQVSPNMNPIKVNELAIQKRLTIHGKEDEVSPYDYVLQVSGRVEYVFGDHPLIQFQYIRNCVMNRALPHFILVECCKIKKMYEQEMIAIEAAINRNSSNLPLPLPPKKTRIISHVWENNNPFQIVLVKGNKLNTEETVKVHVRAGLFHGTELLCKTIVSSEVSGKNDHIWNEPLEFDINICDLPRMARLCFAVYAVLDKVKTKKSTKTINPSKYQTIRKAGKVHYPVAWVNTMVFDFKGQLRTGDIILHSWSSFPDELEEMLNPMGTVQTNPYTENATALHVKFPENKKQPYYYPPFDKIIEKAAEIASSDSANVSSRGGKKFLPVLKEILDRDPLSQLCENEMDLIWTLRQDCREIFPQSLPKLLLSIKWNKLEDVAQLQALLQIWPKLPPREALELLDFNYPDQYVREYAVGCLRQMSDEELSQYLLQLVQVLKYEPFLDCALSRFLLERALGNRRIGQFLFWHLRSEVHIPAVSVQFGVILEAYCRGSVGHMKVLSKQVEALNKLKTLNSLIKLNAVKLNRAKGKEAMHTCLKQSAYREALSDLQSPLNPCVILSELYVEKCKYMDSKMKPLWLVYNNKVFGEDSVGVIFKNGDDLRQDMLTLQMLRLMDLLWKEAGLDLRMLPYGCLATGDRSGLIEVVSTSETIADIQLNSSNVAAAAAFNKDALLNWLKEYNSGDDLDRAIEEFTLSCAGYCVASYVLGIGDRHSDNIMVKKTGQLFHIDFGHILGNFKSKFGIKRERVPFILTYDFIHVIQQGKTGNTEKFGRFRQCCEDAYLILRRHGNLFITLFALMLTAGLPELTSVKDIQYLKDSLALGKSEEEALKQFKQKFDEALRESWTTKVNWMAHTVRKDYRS
T2 sequence (P27986 whole entry partner): as the sequence (P27986 whole entry partner) above
Protocol: (B) an In Vitro Assay which Determines the Ability of a Test Compound to Inhibit PI3Kβ.
Activity of PI3Kβ was measured using ADP-Glo assay from Promega. […], a complex of N-terminal His-tagged recombinant full-length human p110β (GenBank, Accession No. NM_006219) and untagged recombinant full length human p85α (GenBank Accession No. XM—043865) were co-expressed in a Baculovirus infected Sf9 cell expression system. The ADP-Glo assay was performed to measure the amount of ADP generated from ATP hydrolysis coupled with PIP2 phosphorylation by the purified recombinant PI3Kβ (p110β/p85α). PI3Kβ was incubated with 20 μM PIP2 substrate in the reaction buffer (10 mM Tris-HCl, pH 7.5, 50 mM NaCl, 5 mM MgCl2, 10 μM ATP and 0.5% DMSO) for 90 minutes at room temperature. The ADP generated was then detected by ADP-Glo assay from Promega, a luminescent ADP detection assay. The ADP-Glo assay is performed in two steps; first, after the kinase reaction, ADP-Glo Reagent is added to terminate the kinase reaction and deplete the remaining ATP. Second, the Kinase Detection Reagent is added to simultaneously convert ADP to ATP and allow the newly synthesized ATP to be measured using a luciferase/luciferin reaction.

[2] = target: T3, mTor serine/threonine protein kinase (Homo sapiens, UniProt P42345); assay: mTor kinase radioisotope assay; assay type: biochemical; settings: 70 uM ATP, 40 minutes; read-out: m-TOR IC50
T3 construct: FLAG; made in house; host or cells: Baculovirus expression system in Sf21 cells
Protocol: (F) an In Vitro Assay which-Determines the Ability of a Test Compound to Inhibit mTor Serine/Threonine Protein Kinase.
The ability of compounds to inhibit mTor activity was assayed using standard radioisotope assay for kinase. Briefly, FLAG-tagged, recombinant full-length human mTor (GenBank accession No. NM_004958) was expressed using baculovirus expression system in Sf21 cells and purified using antibody affinity column. Purified enzyme was incubated with c-terminal fragment of p70S6K as it's substrate in the presence of ATP. p33 ATP tracers were included in the assay to monitor the enzyme activity. Final assay condition was with 50 mM HEPES pH 7.5, 1 mM EGTA, 0.01% Tween 20, 2 mg/ml substrate, 3 mM Manganese Chloride and 70 uM of ATP and was carried out at room temperature for 40 minutes. The reaction was then stopped by the addition of 3% phosphoric acid solution. 10 ul of the reaction was spotted onto a P30 filtermat and washed three times for 5 minutes in 75 mM phosphoric acid and once in methanol prior to drying and scintillation counting. Different concentrations of compounds were added to reaction to assess the activity of compounds to inhibit mTor kinase. IC50 was calculated using Prism software with sigmoidal dose-response curve fitting.

Calu6 = assay: Cell proliferation assay (CellTiter-Glo); assay type: cell-based; settings: Homo sapiens, Calu-6; NSCLC; 72 hours, 0.5% fetal bovine serum; read-out: antiproliferative activity IC50, Calu6
Protocol: (§1) Cell Proliferation Assay:
(§2) Cancer cell lines were plated at 5,000 to 10,000 per well in 96-well flat bottomed plates with various concentration of compounds. The cells were incubated with compounds for 72 hours in the presence of 0.5% of fetal bovine serum. Growth inhibition was accessed by adenosine triphosphate (ATP) content assay using Promega CellTiter-Glo kit. Promega CellTiter-Glo kit is an ATP monitoring system based on firefly luciferase. Briefly, 16 μl of mammalian cell lysis and substrate solution was added to 84 μl of culture medium per well to lyse the cells and stabilize the ATP. The mixture was shaken and incubated for 30 minutes and subsequently the luminescence was measured.

OPM-2 = assay: Cell proliferation assay (CellTiter-Glo); assay type: cell-based; settings: Homo sapiens, Multiple Myeloma, 72 hours, 0.5% fetal bovine serum, read-out: antiproliferative activity IC50, OPM-2
Protocol: as §1, §2

WiDr = assay: Cell proliferation assay (CellTiter-Glo); assay type: cell-based; settings: Homo sapiens, Colon, 72 hours, 0.5% fetal bovine serum, read-out: antiproliferative activity IC50, WiDr
Protocol: as §1, §2

A549 = assay: Cell proliferation assay (CellTiter-Glo); assay type: cell-based; settings: Homo sapiens, NSCLC, 72 hours, 0.5% fetal bovine serum, read-out: antiproliferative activity IC50, A549
Protocol: as §1, §2

H2122 = assay: Cell proliferation assay (CellTiter-Glo); assay type: cell-based; settings: Homo sapiens, NCI-H2122; NSCLC; 72 hours, 0.5% fetal bovine serum; read-out: antiproliferative activity IC50, H2122
Protocol: as §1, §2

H358 = assay: Cell proliferation assay (CellTiter-Glo); assay type: cell-based; settings: Homo sapiens, NCI-H358; NSCLC; 72 hours, 0.5% fetal bovine serum; read-out: antiproliferative activity IC50, H358
Protocol: as §1, §2

H460 = assay: Cell proliferation assay (CellTiter-Glo); assay type: cell-based; settings: Homo sapiens, NCI-H460; NSCLC; 72 hours, 0.5% fetal bovine serum; read-out: antiproliferative activity IC50, H460
Protocol: as §1, §2

HCT116 = assay: Cell proliferation assay (CellTiter-Glo); assay type: cell-based; settings: Homo sapiens, HCT-116; Colon; 72 hours, 0.5% fetal bovine serum; read-out: antiproliferative activity IC50, HCT116
Protocol: as §1, §2

MiaPaca1 = assay: Cell proliferation assay (CellTiter-Glo); assay type: cell-based; settings: Pancreas; 72 hours, 0.5% fetal bovine serum; read-out: antiproliferative activity IC50, MiaPaca1
Protocol: as §1, §2

H292 = assay: Cell proliferation assay (CellTiter-Glo); assay type: cell-based; settings: Homo sapiens, NCI-H292; NSCLC; 72 hours, 0.5% fetal bovine serum; read-out: antiproliferative activity IC50, H292
Protocol: as §1, §2

Compound	IC50 [1] [nM]	IC50 (PI3Kα (p110α/p85α)) [nM]	IC50 (PI3Kβ (p110β/p85α)) [nM]	melting point [°C]	IC50 [2] [nM]	IC50 (Calu6) [nM]	IC50 (OPM-2) [nM]	IC50 (WiDr) [nM]	IC50 (A549) [nM]	IC50 (H2122) [nM]	IC50 (H358) [nM]	IC50 (H460) [nM]	IC50 (HCT116) [nM]	IC50 (MiaPaca1) [nM]	IC50 (H292) [nM]
O=C(NO)c1cnc(N(CCO)Cc2cc3nc(-c4cccc5[nH]ncc45)nc(N4CCOCC4)c3s2)nc1 [Compound 86, 2-(((2-(1H-indazol-4-yl)-4-morpholinothieno[3,2-d]pyrimidin-6-yl)methyl)(2-hydroxyethyl)amino)-N-hydroxypyrimidine-5-carboxamide]	< 100	< 100	< 100	190 to 194											
CN(Cc1cc2nc(-c3ccc(N)nc3)nc(N3CCOCC3)c2s1)c1ncc(C(=O)NO)cn1 [Compound 110, 2-(((2-(6-aminopyridin-3-yl)-4-morpholinothieno[3,2-d]pyrimidin-6-yl)methyl)(methyl)amino)-N-hydroxypyrimidine-5-carboxamide]	< 100	< 100		175 to 181	< 100	10 to 100	< 10	10 to 100							
CN(Cc1cc2nc(-c3cnc(N)nc3)nc(N3CCOCC3)c2s1)c1ncc(C(=O)NO)cn1 [Compound 115, 2-(((2-(2-aminopyrimidin-5-yl)-4-morpholinothieno[3,2-d]pyrimidin-6-yl)methyl)(methyl)amino)-N-hydroxypyrimidine-5-carboxamide]	< 100	< 100		175 to 181	< 100	10 to 100	10 to 100	100 to 1000	10 to 100						
CN(Cc1cc2nc(-c3ccc(N)cc3Cl)nc(N3CCOCC3)c2s1)c1ncc(C(=O)NO)cn1 [Compound 284, 2-(((2-(4-Amino-2-chlorophenyl)-4-morpholinothieno[3,2-d]pyrimidin-6-yl)methyl)(methyl)amino)-N-hydroxypyrimidine-5-carboxamide]	< 100	< 100		179 to 183				10 to 100	10 to 100	< 10	< 10	10 to 100	< 10	10 to 100	
CN(Cc1cc2nc(-c3cccc(OCCO)c3)nc(N3CCOCC3)c2s1)c1ncc(C(=O)NO)cn1 [Compound 289, 2-({2-[3-(2-Hydroxy-ethoxy)-phenyl]-4-morpholin-4-yl-thieno[3,2-d]pyrimidin-6-ylmethyl}-methyl-amino)-pyrimidine-5-carboxylic acid hydroxyamide]	< 100	< 100		148 to 152				< 10	10 to 100	< 10	< 10	10 to 100	< 10	< 10	< 10
CN(Cc1cc2nc(-c3cc(O)ccc3F)nc(N3CCOCC3)c2s1)c1ncc(C(=O)NO)cn1 [Compound 292, 2-(((2-(2-Fluoro-5-hydroxyphenyl)-4-morpholinothieno[3,2-d]pyrimidin-6-yl)methyl)(methyl)amino)-N-hydroxypyrimidine-5-carboxamide]	< 100	< 100		250 to 255	< 100			10 to 100	100 to 1000	10 to 100	10 to 100	10 to 100	10 to 100	10 to 100	
CC(O)c1cccc(-c2nc(N3CCOCC3)c3sc(CN(C)c4ncc(C(=O)NO)cn4)cc3n2)c1 (centres unmarked) [Compound 294, N-Hydroxy-2-(((2-(3-(1-hydroxyethyl)phenyl)-4-morpholinothieno[3,2-d]pyrimidin-6-yl)methyl)(methyl)amino)pyrimidine-5-carboxamide]	< 100	< 100			100 to 1000			10 to 100	10 to 100	< 10	< 10	10 to 100	< 10	< 10	10 to 100
C[C@H](O)c1cccc(-c2nc(N3CCOCC3)c3sc(CN(C)c4ncc(C(=O)NO)cn4)cc3n2)c1 [Compound 296, (S)—N-Hydroxy-2-(((2-(3-(1-hydroxyethyl)phenyl)-4-morpholinothieno[3,2-d]pyrimidin-6-yl)methyl)(methyl)amino)pyrimidine-5-carboxamide]	< 100	100 to 1000		168 to 172	> 10000	10 to 100		< 10	10 to 100	10 to 100	10 to 100	10 to 100	< 10	10 to 100	10 to 100
CNc1ccc(-c2nc(N3CCOCC3)c3sc(C(=O)NCC4CCN(c5ncc(C(=O)NO)cn5)CC4)cc3n2)cn1 [Compound 308, N-((1-(5-(Hydroxycarbamoyl)pyrimidin-2-yl)piperidin-4-yl)methyl)-2-(6-(methylamino)pyridin-3-yl)-4-morpholinothieno[3,2-d]pyrimidine-6-carboxamide]	< 100	< 100		215 to 218				100 to 1000	100 to 1000	100 to 1000	100 to 1000	100 to 1000	100 to 1000	100 to 1000	100 to 1000

— US20130102595A1 (Curis, Inc., priority 2011, published 2013)
